From patent US6395775B1, “Combating pest insects” (priority 1995, dated 2002)
“Also recorded” adds a separate entry of the source.

Key:
[1] = test system: codling moth, Cydia pomonella; experiment: Pheromone trap catch test; format: in vivo; conditions: for behavioural effect on codling moth in pheromone traps: isomer of the acetate combined with E8,E10-dodecadien-1-ol in traps
Source text: Pheromone traps were loaded with the pheromone, E8,E10-dodecadien-1-ol of the codling moth, (FIG. 1A). In other traps the alcohol was combined with the corresponding acetate (FIG. 1B). At a blend of 20% of the acetate the catch decreased to ⅛ (dark column).

[2] = test system: codling moth, Cydia pomonella; experiment: Confusion test in 100 m^2 test areas in a fruit orchard; format: in vivo; conditions: for confusing effect (males trapped compared with non-treated control square): four dispensing means in the corners, pheromone trap in the center
Method: In another test a confusion test was carried out in 100 m^2 quadratic test areas in a fruit orchard. […] In the respective center of each square, a pheromone trap loaded with the sex pheromone, E8, E10-dodecadien-1-ol of the codling moth, was placed. The confusing effect was calculated as the number of males trapped in the trap compared with the number trapped in a trap in a non-treated control square, i.e. without any behavior antagonist in the respective corner. […] The sex pheromone of the codling moth, the alcohol, is as already mentioned, in commercial use. The inhibiting results are, however, not always satisfying, (Cardé & Minks, 1995, “Control of moth pests by mating disruption. Successes and constraints”, Ann. Rev. Entomol. 49:559-585) in particular not in fruit orchards having high trees and a high population density. […] Probably, the concentration of pheromone from located dispensing means so low there, that the attracting power of the pheromone dominates its confusing effect. Males circulating in the tree tops may also be caught in lower placed traps which indicates a lacking confusing effect. […] Several of the males caught in pheromone traps in such treated squares can be seen flying some meters above the ground and straight into the trap. They never arrived from the top of the trees.

codling moth = conditions: cited from earlier work; for previous classification of behavioural role: Hathaway et al. 1974, Witzgall et al. 1996a, El-Sayed et al. 1998
C. pomonella males = experiment: Wind tunnel experiments, male attraction; format: in vivo, Cydia pomonella; conditions: codlemone 10 pg/min; E8,Z10-dodecadien-1-ol added at 3% by weight or E8,E10-dodecadienyl acetate at 1% by weight; n=60
Source text: Tests were done in a wind tunnel with a flight section of 63 by 90 by 200 cm. Dilutions of synthetic compounds in redistilled ethanol were released from an ultrasound evaporator (Gödde et al. 1999). A motor-driven syringe delivered pheromone solutions in ethanol, through micro-tubing, to a glass capillary tube with a 40 μm tip. A piezo-ceramic disc vibrates the tip of the capillary tube at 100-140 kHz, and the pheromone solution evaporates within a few cm of the tip of the capillary.
The main compound codlemone, E8,E10-dodecadien-1-ol, was applied at a rate of 10 pg/min, E8,Z10-dodecadien-1-ol was added at 3% by weight (FIG. 2), E8,E10-dodecadienyl acetate was added at 1% by weight (FIG. 3).
Test sessions started 1 h after lights off and lasted 3 to 4 h. Two-day-old males were placed individually in glass tubes (15 by 2.5 cm) stoppered with gauze, 15 min prior to testing. Males were released individually and were allowed 2 min to respond. Treatments were tested on 4 days with 15 males/day (n=60).
The sequence of male behaviours elicited by perception of sex pheromone includes activation from rest and taking flight, upwind-oriented flight towards the pheromone source, landing at the pheromone source, and display of courtship behaviors close to the source (walking while wingfanning) (FIGS. 2 and 3). These behaviors are followed by mating, if the pheromone source is a calling female.

Compound	behavioural effect on codling moth in pheromone traps [1]	confusing effect (males trapped compared with non-treated control square) [2]	previous classification of behavioural role (codling moth)	male attraction and close range behaviours at the pheromone source, compared to E8,E10-dodecadien-1-ol alone (C. pomonella males)	further results
CC=CC=CCCCCCCCOC(C)=O [ZZ]					behavioural effect on codling moth in pheromone traps ([1]; listed as zz-isomer): most powerful of the four isomers
C/C=C/C=C\CCCCCCCOC(C)=O [ZE]	behaviour antagonists				
C/C=C/C=C/CCCCCCCOC(C)=O [E8,E10-dodecadien-1-yl acetate]	behaviour antagonist	strong confusing effect	pheromone antagonists	enhances male attraction and close range behaviours; also recorded: acts as an antagonist when present in high amounts, and as a synergist when present in lower amounts	catch in pheromone traps, decrease relative to E8,E10-dodecadien-1-ol alone ([1]; alcohol combined with the acetate, blend of 20% of the acetate): ⅛
C/C=C/C=C/CCCCCCCO [E8,E10-dodecadien-1-ol]		strong confusing effect			observation of males in the tree tops of treated squares ([2]; fruit orchards having high trees and a high population density): males are attracted to the tree tops; attraction of the codling moth by geometric isomers of the alcohol (codling moth; Roelofs et al (1972)): very attractive
C/C=C\C=C\CCCCCCCO [E8,Z10-dodecadien-1-ol]			pheromone antagonists	enhances male attraction and close range behaviours	
CC=CC=CCCCCCCCOC(C)=O [EZ]	behaviour antagonists				
